ChEMBL document CHEMBL5113376, “Antimalarial application of quinones: A recent update” (Eur J Med Chem, 2021)
pIC50: −log10 of the molar value. Converted amounts (≈) assume the structure as drawn.

What was measured:
Plasmodium falciparum [1] = assay: Antimalarial activity against chloroquine resistant Plasmodium falciparum RKL-9; type: functional, organism-based
Plasmodium falciparum [2] = assay: Antimalarial activity against chloroquine sensitive Plasmodium falciparum RKL-2; type: functional, organism-based
Plasmodium falciparum [3] = assay: Antimalarial activity against drug resistant Plasmodium falciparum K1; type: functional, organism-based
Plasmodium falciparum [4] = assay: Antimalarial activity against Plasmodium falciparum 3D7 measured after 24 hrs by hypoxanthine based scintillation counting analysis; type: functional; details: read-out: ED50 (the source's name)
Plasmodium falciparum [5] = assay: Antimalarial activity against Plasmodium falciparum 3D7 by H-hypoxanthine incorporation based assay; type: functional, organism-based
Plasmodium falciparum [6] = assay: Antimalarial activity against Plasmodium falciparum Dd2 by H-hypoxanthine incorporation based assay; type: functional, organism-based
Plasmodium falciparum [7] = assay: Antimalarial activity against Plasmodium falciparum by 96-well microtitre plate method based scintillation counting analysis; type: functional, organism-based
Plasmodium falciparum [8] = assay: Antimalarial activity against Plasmodium falciparum NF54 by 96-well microtitre plate method based scintillation counting analysis; type: functional, organism-based
Plasmodium falciparum [9] = assay: Antimalarial activity against Plasmodium falciparum RKL-2 assessed as inhibition of malarial growth by measuring dead rings/schizonts at 50 ug/ml relative to control; type: functional
Plasmodium falciparum [10] = assay: Antimalarial activity against Plasmodium falciparum RKL-2; type: functional, organism-based
Plasmodium falciparum [11] = assay: Antimalarial activity against Plasmodium falciparum 3D7 assessed as inhibition of malarial growth by measuring dead rings/schizonts at 50 ug/ml relative to control; type: functional
Plasmodium falciparum [12] = assay: Antimalarial activity against Plasmodium falciparum 3D7; type: functional, organism-based
Plasmodium falciparum [13] = assay: Antiplasmodial activity against Plasmodium falciparum 3D7 infected in human erythrocytes assessed as growth inhibition; type: functional, organism-based; details: 3D7, Erythrocyte
[14] = Cytotoxicity against African green monkey Vero cells; type: toxicity, cell-based; details: chlorocebus sabaeus
Plasmodium falciparum [15] = assay: Antimalarial activity against chloroquine […] Plasmodium falciparum 3D7 incubated for 72 hrs by SYBR green staining based fluorescence reader method; type: functional, organism-based; details: 3D7, 72 h
[16] = Selectivity index, ratio of CC50 for african green monkey Vero cells to IC50 for Chloroquine resistant Plasmodium falciparum K1; type: toxicity; details: read-out: Ratio CC50/IC50
Plasmodium falciparum [17] = assay: Antimalarial activity against chloroquine resistant Plasmodium falciparum K1 incubated for 72 hrs by SYBR green staining based fluorescence reader method; type: functional, organism-based; details: K1, 72 h
Plasmodium falciparum [18] = assay: Antimalarial activity against multi-drug resistant Plasmodium falciparum K1; type: functional, organism-based
Plasmodium falciparum [19] = assay: Antimalarial activity against chloroquine sensitive Plasmodium falciparum RKL-2 by Giemsa staining method; type: functional, organism-based
Plasmodium falciparum [20] = assay: Antimalarial activity against chloroquine resistant Plasmodium falciparum RKL-9 by Giemsa staining method; type: functional, organism-based
Plasmodium berghei [21] = assay: In vivo antiplasmodial activity against Plasmodium berghei infected in mouse assessed as increase in mean survival time at 50 mg/kg/day, ip for 4 days (reference value: 4 to 6 days); type: functional; details: time 4 day
Plasmodium berghei [22] = assay: In vivo antiplasmodial activity against Plasmodium berghei infected in mouse assessed as reduction of parasitaemia at 100 mg/kg/day, po for 4 days relative to control; type: functional; set-up: scale not given: the % may be the effect or the level left; details: time 4 day
Plasmodium berghei [23] = assay: In vivo antiplasmodial activity against Plasmodium berghei infected in mouse assessed as reduction of parasitaemia at 50 mg/kg/day, ip for 4 days relative to control; type: functional; set-up: scale not given: the % may be the effect or the level left; details: time 4 day
Plasmodium falciparum [24] = assay: Antiplasmodial activity against Plasmodium falciparum K1; type: functional, organism-based
Plasmodium falciparum [25] = assay: Potency index, ratio of chloroquine IC50 to compound IC50 for antimalarial activity against Plasmodium falciparum Dd2; type: functional
Plasmodium berghei [26] = assay: In vivo antiplasmodial activity against Plasmodium berghei ANKA infected in CD-1 mouse assessed as decrease in parasitaemia at 50 mg/kg, ip measured after 4 days relative to control; type: functional; set-up: scale not given: the % may be the effect or the level left; details: time 4 day
Plasmodium berghei [27] = assay: In vivo antiplasmodial activity against Plasmodium berghei ANKA infected in CD-1 mouse assessed as decrease in parasitaemia at 50 mg/kg, ip measured after 7 days relative to control; type: functional; set-up: scale not given: the % may be the effect or the level left; details: time 7 day
Plasmodium falciparum [28] = assay: Antimalarial activity against Plasmodium falciparum Dd2 by SYBR green method; type: functional, organism-based
Plasmodium falciparum [29] = assay: In vivo antimalarial activity against Plasmodium falciparum 3D70087/N9 infected in humanized mouse model assessed as reduction in parasitemia administered orally for 4 days measured on day 7 relative to control; type: functional; set-up: scale not given: the % may be the effect or the level left; details: route po; time 7 day
Plasmodium falciparum [30] = assay: Antiplasmodial activity against Chloroquine resistant plasmodium falciparum FCR-3; type: functional, organism-based
[31] = Selectivity index, ratio of IC50 for human MDA-MB-231 cells to IC50 for Chloroquine resistant Plasmodium falciparum FCR-3; type: toxicity; details: read-out: Ratio IC50
Plasmodium falciparum [32] = assay: Antimalarial activity against Plasmodium falciparum TM91C235; type: functional, organism-based
Plasmodium falciparum [33] = assay: Antimalarial activity against Plasmodium falciparum TM90C2B (1995); type: functional, organism-based
Plasmodium berghei [34] = assay: Antimalarial activity against Plasmodium berghei; type: functional, organism-based
Plasmodium falciparum [35] = assay: Antimalarial activity against Plasmodium falciparum TM90C2B (2007); type: functional, organism-based
Plasmodium falciparum [36] = assay: Antimalarial activity against Plasmodium falciparum W2; type: functional, organism-based
Plasmodium falciparum [37] = assay: Antimalarial activity against Plasmodium falciparum D6; type: functional, organism-based
Plasmodium falciparum [38] = assay: Antiplasmodial activity against Plasmodium falciparum W2 assessed as inhibition of parasite growth after 48 hrs by pLDH assay; type: functional, organism-based; details: W2, 48 h
Plasmodium falciparum [39] = assay: Antimalarial activity against Plasmodium falciparum W2 by 96-well microtitre plate method based scintillation counting analysis; type: functional, organism-based

SMILES: O=C1C(O)=C(Nc2ccc(O)c(CN3CCOCC3)c2)C(=O)c2ccccc21
- IC50 (Plasmodium falciparum [1]): 0.993 µg/mL (≈ 2.61 µM)
- IC50 (Plasmodium falciparum [2]): 0.391 µg/mL (≈ 1.03 µM)

SMILES: CCCn1c2c([n+](C(C)C)c1C)C(=O)c1ccccc1C2=O
- pIC50 (Plasmodium falciparum [3]): 8.49

SMILES: Cc1cc(O)c2c(c1)C(O)(c1ccc3c(c1O)C(=O)c1c(O)cc(C)c(O)c1C3=O)c1cccc(O)c1C2=O (stereo not given)
- EC50 (Plasmodium falciparum [4]): 0.537 µg/mL (≈ 1.02 µM)

SMILES: CC1=C(Cc2ccncc2)C(=O)c2ccccc2C1=O
- pIC50 (Plasmodium falciparum [5]): 7.17
- pIC50 (Plasmodium falciparum [6]): 7.16

SMILES: Cc1cc(O)c2c(c1)C(=O)C(c1c(C)cc3c(c1O)C(=O)C=CC3=O)=CC2=O [DIOSPYRIN]
- IC50 (Plasmodium falciparum [7]): 3.29 µg/mL (≈ 8.79 µM)

SMILES: COc1cc(O)c(-c2c(C)cc(O)c3c2C(=O)c2cccc(O)c2C3=O)c(O)c1C(C)=O [KNIPHOLONE]
- pIC50 (Plasmodium falciparum [8]): 5.77

SMILES: CCCNCc1cc(NC2=C(O)C(=O)c3ccccc3C2=O)ccc1O
- IC50 (Plasmodium falciparum [1]): 2.92 µg/mL (≈ 8.29 µM)
- IC50 (Plasmodium falciparum [2]): 0.453 µg/mL (≈ 1.29 µM)

SMILES: O=C1C(O)=C(C(Nc2cccc([N+](=O)[O-])c2)c2ccc([N+](=O)[O-])cc2)C(=O)c2ccccc21 (stereo not given)
- inhibition at 50 µg/mL (Plasmodium falciparum [9]): 70%
- pIC50 (Plasmodium falciparum [10]): 5.86
- inhibition at 50 µg/mL (Plasmodium falciparum [11]): 72.5%
- pIC50 (Plasmodium falciparum [12]): 6.32

SMILES: COC1=C2C[C@@H](C)C[C@H](OC)[C@H](O)[C@@H](C)/C=C(\C)[C@H](OC(N)=O)[C@@H](OC)/C=C\C=C(/C)C(=O)NC(=CC1=O)C2=O [GELDANAMYCIN]
- pIC50 (Plasmodium falciparum [13]): 7.70

SMILES: Cc1cc(O)c2c(c1)C(=O)c1cc(O)c(CN3CCCCC3)c(O)c1C2=O
- CC50 [14]: 782 µM
- pIC50 (Plasmodium falciparum [15]): 5.56
- selectivity ratio [16]: 315
- pIC50 (Plasmodium falciparum [17]): 5.64

SMILES: CSC1=CC2=C(C(=O)c3ccc([C@H]4C[C@@H](O)[C@H](O)[C@@H](C)O4)c(O)c3C2=O)[C@@]2(O)C(=O)C[C@](C)(O)C[C@@]12O
- IC50 (Plasmodium falciparum [18]): 0.0534 µg/mL (≈ 0.1 µM)

SMILES: O=C1C(O)=C(NCCNc2ccnc3cc(Cl)ccc23)C(=O)c2ccccc21
- IC50 (Plasmodium falciparum [19]): 0.391 µg/mL (≈ 0.993 µM)
- IC50 (Plasmodium falciparum [20]): 0.684 µg/mL (≈ 1.74 µM)

SMILES: O=C(O)c1cc2c(o1)C(=O)C1=C(C2=O)S(=O)(=O)C=CN1
- Time (Plasmodium berghei [21]): 9 days
- Activity (Plasmodium berghei [22]): 47%
- Activity (Plasmodium berghei [23]): 85.7%
- pIC50 (Plasmodium falciparum [24]): 6.92

SMILES: CC1=C(Cc2ccc(NC(=O)OC(C)(C)C)cc2)C(=O)c2ccccc2C1=O
- Ratio IC50 (Plasmodium falciparum [25]): 3
- Activity (Plasmodium berghei [26]): 75.5%
- Activity (Plasmodium berghei [27]): 81.8%
- pIC50 (Plasmodium falciparum [28]): 7.38

SMILES: Cc1n(C(C)C)c2c([n+]1C(C)C)C(=O)c1ccccc1C2=O.[Br-]
- Activity (Plasmodium falciparum [29]): 90%

SMILES: CC(C)=CCC/C(=C/CC/C(C)=C/CCc1ccc2c(c1)C(=O)C=C(C)C2=O)C(=O)O
- pIC50 (Plasmodium falciparum [30]): 5.27
- selectivity ratio [31]: 443

SMILES: CCCCCC[C@H](C)CC1=C(O)C(=O)c2c(C)cccc2C1=O
- pIC50 (Plasmodium falciparum [32]): 6.64
- pIC50 (Plasmodium falciparum [33]): 6.63
- pIC50 (Plasmodium berghei [34]): 6.61
- pIC50 (Plasmodium falciparum [35]): 6.71
- pIC50 (Plasmodium falciparum [36]): 6.72
- pIC50 (Plasmodium falciparum [37]): 7.14

SMILES: O=C1C(O)=C(C(c2ccccc2O)N2CCCC2)C(=O)c2ccccc21 (stereo not given)
- inhibition at 50 µg/mL (Plasmodium falciparum [9]): 70%
- IC50 (Plasmodium falciparum [10]): 1.17 µg/mL
- inhibition at 50 µg/mL (Plasmodium falciparum [11]): 72.5%
- IC50 (Plasmodium falciparum [12]): 0.411 µg/mL

SMILES: O=C1c2ccccc2C(=O)c2oc(Cc3ccccc3)cc21
- pIC50 (Plasmodium falciparum [38]): 5.82

SMILES: C=C(C)C1CC2=C(O1)C(=O)c1ccccc1C2=O (stereo not drawn) [DEHYDROISO-ALPHA-LAPACHONE]
- IC50 (Plasmodium falciparum [39]): 7.53 µg/mL (≈ 31.3 µM)
